What was measured:
[1] = Maillard browning test, tanning test 2 (aqueous test substance reacted with lysine, with or without lipase); conditions: room temperature; for Maillard browning colour after reacting with lysine: 0.1M aqueous solution or suspension + 1M Lysine aqueous solution; for Maillard browning colour after reacting with lysine, + 1% lipase: aqueous
Excerpt: (§1) The ability of compounds according to formula I to induce an artificial tanning on the skin can roughly be estimated using a simple Maillard browning test. This visual test is based on the principle that the reaction of skin with DHA to produce an artificial tan proceeds through a complex set of reactions (Maillard reaction) with free amino acids of skin proteins, particularly with arguinine, lysine and histidine.
(§2) The tanning ability of 2,5-dipalmitoyloxymethyl-[1,4]dioxane-2,5-diol (A) is evaluated by means of the Maillard browning effect after reacting with lysine in different solvents (water and the cosmetic oil miglyol) and compared with those of reference compounds: DHA and monomeric DHA-palmitic acid monoester (B) under the same conditions. Besides that, the tanning effect of 2,5-dipalmitoyloxymethyl-[1,4]dioxane-2,5-diol in the presence of lipases (enzymes used by the body to hydrolyse fats) is also studied.

[2] = Maillard browning test, tanning test 1 (test substance in miglyol reacted with lysine); conditions: for Maillard browning colour after reacting with lysine: Tanning test 1, 0.1M in miglyol + 1M Lysine aqueous solution, room temperature
Excerpt: as §1, §2

[3] = DHA monomer/dimer content in aqueous solution at elevated temperature; format: physicochemical; conditions: DHA solutions at 30-50° C.
Excerpt: It is assumed that the improved tanning effect at elevated temperatures in the case of 1,3-dihydroxyacetone is connected with the following mechanism. As a raw material, DHA is in the form of a powder and consists of dimers. Dissolved in water, some of the dimers convert to the active monomeric form, which brings about the tanning reaction. At an elevated water temperature, the amount of monomers increases. […] At the same time, the elevated temperature increases the reaction rate of the tanning reaction. […] It is therefore preferred according to the invention when the solution of the self-tanning substance is heated for about 15 min, but at least about 10 min, before the solution is applied to the human skin.

| melting point [°C] | Maillard browning colour after reacting with lysine ([1]; 2 days) | Maillard browning colour after reacting with lysine ([1]; 5 h) | Maillard browning colour after reacting with lysine ([1]; 1 day) | Maillard browning colour after reacting with lysine, + 1% lipase ([1]; 1 h) | Maillard browning colour after reacting with lysine, + 1% lipase ([1]; 1 day) | More active DHA monomers present than in DHA solutions at 20° C. [3] | Maillard browning colour after reacting with lysine ([1]; 1 h) | Structure (SMILES) | Maillard browning colour after reacting with lysine ([2]; 5 h) | Maillard browning colour after reacting with lysine ([2]; 1 day) | Maillard browning colour after reacting with lysine ([2]; 8 days) | Ability to undergo Maillard browning reactions ([2]; overall conclusion from tanning tests 1 and 2) | Maillard browning colour after reacting with lysine ([2]; 1 h) |
| --- | --- | --- | --- | --- | --- | --- | --- | --- | --- | --- | --- | --- | --- |
| 95.2 | Brown |  |  |  |  |  |  | CCCCCCCCCCCCCCCC(=O)OCC1(O)COC(O)(COC(=O)CCCCCCCCCCCCCCC)CO1 (stereo not shown) [A, 2,5-dipalmitoyloxymethyl-[1,4]dioxane-2,5-diol] | Light yellow | Yellow | Brown | able to undergo Maillard browning reactions |  |
|  |  | Yellow | Brown | Yellow | Brown |  |  | CCCCCCCCCCCCCCCC(=O)OCC(=O)CO [B, monomeric DHA-palmitic acid monoester] | Yellow | Brown | Dark brown |  | Light yellow |
|  |  |  |  |  |  | up to 30% | Brown | O=C(CO)CO [DHA, 1,3-dihydroxyacetone] | Light yellow | Brown | Dark brown |  |  |

Reference: patent US20060045856A1, “Composition containing a dihydroxyacetone precursor” (priority 2004, published 2006)
